In PMC8596125, “Self‐Stabilized Supramolecular Assemblies Constructed from PEGylated Dendritic Peptide Conjugate for Augmenting Tumor Retention and Therapy” (Advanced Science, 2021):

Assays:
[1] = tested on: A549 human non-small cell lung tumor; assay: In vivo photodynamic therapy, A549 xenograft model; set-up: species or system mouse; conditions: nude mice with A549 tumors, i.v. 5 mg Ppa kg-1 on day 1, 14, 21, 28, 660 nm 200 mW cm-2 8 min, n = 5
Description: and stained by the terminal deoxynucleotidyl transferase dUTP nick end labeling (TUNEL) and CD31 for histology studies.
For studies with an A549 human non-small cell lung tumor model, nude mice were randomly allocated into three groups (n= 5): saline (control), Ppa, and SSAs when the average tumor volume reached 50 mm3. Saline, Ppa, and SSAs (5 mg Ppa kg-1) were injected intravenously on day 1, 14, 21 and 28. At 3 d post injection, the tumors from groups Ppa, and SSAs were irradiated with a 660 nm laser (200 mW cm-2, 8 min). The tumor growth was monitored and the tumor size was measured every 3 d. The mice were sacrificed on day 61 after treatment.
1.3.16 RNA-seq and enriched signaling pathways analysis
4T1 cells (106/culture) were treated by SSAs and free Ppa with or without laser.
Untreated cells were set as a control. Total RNA was extracted (TRIzol Reagent, Thermo Fisher Scientific, USA) and rRNAs were removed by Ribo-zero™ rRNA Removal Kit (Epicentre, CA, USA). Relative abundance of transcripts was calculated with kallisto. The raw RNA-Seq count data were processed by DESeq R packages to obtain differentially expressed genes (DEGs).[4] […]
Enrichment analyses were performed according to the KEGG database. For gene set enrichment analysis (GSEA), all gene sets were analyzed against the curated gene sets […]

4T1 breast tumors = assay: In vivo / ex vivo fluorescence imaging and tumor retention; set-up: species or system mouse; conditions: BALB/c nude mice with 4T1 tumors, i.v. 5 mg Ppa kg-1, in vivo fluorescence imaging up to 14 d, n = 3
From the text: Where AS is the absorbance of the sample, A100 is the absorbance of lysed erythrocytes in H2O (a positive control), and A0 is the absorbance of 0% hemolysis in PBS (a negative control).
1.3.12 Skin photosensitization
The backs of healthy BALB/c mice were depilated 3 days before treatment to ensure that all injures had recovered. The shaved mice were randomly divided into 4 groups: (a) SSAs + laser irradiation; (b) Ppa + laser irradiation; (c) laser irradiation; (d) control (without any treatment). The dose of Ppa was 5 mg Ppa kg-1. Right after administration, the anesthetized mice were irradiated by a 660 nm laser (0.26 W cm-2, […], 108 J cm-2). […] The degree of skin response was examined and scored according to Table S5, and Paraffin sections of the skin were stained with hematoxylin and eosin (H&E) according to the manufacturer's instructions.[3] […]
Plasma was diluted to 50-fold with DMSO for fluorescent measurements using a BioTek plate reader. The pharmacokinetic parameters were calculated using a two-compartment model by WinNonlin 5.2 software.
1.3.14 In vivo fluorescence imaging and biodistribution […]
Fluorescence signals were detected at 1 h, 3 h, 12h, 24 h, 2 d, 3 d, 5 d, 7 d, 9 d, 11 d […]
and 14 d post-intravenous injection by a small-animal in vivo fluorescence imaging system (CRi Maestro EX, USA) with excitation at […]. […]

A549 cells = assay: Cytotoxicity, CCK-8 assay, A549; assay type: cell-based, human
Description: The CCK-8 assay was used to examine the photodynamic therapeutic effect of SSAs on cell viability against three cell lines. 4×103 4T1 cells per well were seeded in a 96-well plate, and then incubated overnight. The cells were treated with different concentrations of Ppa and SSAs at an equivalent Ppa dose. After 24 h incubation, the medium was replaced with fresh one, and the wells were irradiated using a 660 nm laser with 1 J cm−2. After 24 h, the spent media was replaced and the cell viability was assessed using the CCK-8 reagent. The absorbance at […] of each well was recorded on a microplate reader. Untreated cells were served as a control. Results were presented as the average cell viability by following the manufacturer’s instruction. IC50 values were calculated by using nonlinear regression in software Graphpad Prism7. The cytotoxicity of SSAs and Ppa with or without laser against A549 cell line was also measured through the same procedure. […]

## C=Cc1c(C)c2cc3nc(c4c5[nH]c(cc6nc(cc1[nH]2)C(C)=C6CC)c(C)c5C(=O)C4)[C@@H](CCC(=O)O)[C@@H]3C [Ppa, pyropheophorbide a]
[1]
  Tumor growth: modest tumor growth suppression
4T1 breast tumors
  Persistence of the fluorescence signal in tumors: disappear on day 3 after injection
A549 cells
  Cytotoxicity without laser irradiation: much higher cytotoxicity
A549 cells; 660 nm laser
  Cytotoxicity under laser irradiation: strong cytotoxicity
